The values that follow come from patent US20110166121A1 (LG LIFE SCIENCES LTD., priority 2008, published 2011).

In test [1] the test system is Human platelet aggregation caused by ADP. The experiment in a line: Inhibition of ADP-induced platelet aggregation (Mimic-human PRP). In kind it is cell-based. The following applies: 20 μM ADP, human platelet concentrate diluted with PPP, absorption at 595 nm. In short, it runs like this: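 Human PRP diluted with PPP to 3–4×10^8 platelets/mL was preincubated 20 min at room temperature with compound (0.01–30 μM, DMSO), then stimulated with 20 μM ADP. Aggregation read as A595 increase at 3 min versus 0 and 20 μM ADP controls; Ki from sigmoidal non-linear regression.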

Test [2] deals with T1, Human P2Y12 receptor (Homo sapiens, UniProt Q9H244).
T1 construct: expressed in transfected cells; host or cells: HEK cells
The experiment in a line: Human P2Y12 receptor cell membrane binding assay with [3H] 2-Mes-ADP. The note with it: 1 nM [3H] 2-Mes-ADP, membranes of HEK cells expressing P2Y12 receptor; read-out: Binding activity (IC50). The essentials:
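Membranes from HEK cells expressing human P2Y12 were incubated with compound and 1 nM [3H]2-MeS-ADP for 1 h at room temperature. Bound radioactivity was collected by GF/B filtration.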

pIC50, pKi: −log10 of the molar value. Several values for one entry are separate records, joined by “and”; a condition that tells them apart may be missing. Equal entries are not always repeated. Some results are limits rather than exact numbers.

T1 sequence (Q9H244 whole entry): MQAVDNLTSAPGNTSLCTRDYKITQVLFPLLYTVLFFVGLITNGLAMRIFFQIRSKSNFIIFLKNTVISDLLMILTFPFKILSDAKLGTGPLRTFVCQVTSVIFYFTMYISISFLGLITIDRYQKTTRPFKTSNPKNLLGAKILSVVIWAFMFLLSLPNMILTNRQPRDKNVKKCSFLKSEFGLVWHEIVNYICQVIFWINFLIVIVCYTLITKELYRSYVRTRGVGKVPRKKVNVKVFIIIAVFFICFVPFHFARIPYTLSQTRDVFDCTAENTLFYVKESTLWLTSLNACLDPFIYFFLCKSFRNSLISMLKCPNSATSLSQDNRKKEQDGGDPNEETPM

For `CCCc1cc2c(N3CCn4c(nnc4C(F)(F)F)C3)nc(N3CCN(CCO)CC3)nc2s1` [Example 1-5, 2-{4-[6-Propyl-4-(3-trifluoromethyl-5,6-dihydro-8H-[1,2,4]triazolo[4,3-a]pyrazin-7-yl)-thieno[2,3-d]pyrimidin-2-yl]-piperazin-1-yl}-ethanol], the pKi (in general, −log10 of the Ki, conventionally taken in molar units) in test [1] was 6.80 and 6.68. The pIC50 (usually the negative decadic logarithm of the IC50, by convention in mol/L) in test [2] was 7.02.

Consider `CCCc1cc2c(N3CCn4c(nnc4C(F)(F)F)C3)nc(COc3ccccc3C(=O)O)nc2s1` [Example 4-25, 2-[6-Propyl-4-(3-trifluoromethyl-5,6-dihydro-8H-[1,2,4]triazolo[4,3-a]pyrazin-7-yl)thieno[2,3-d]pyrimidin-2-ylmethoxy]benzoic acid], for which the pKi in test [1] was 5.72. Besides, in test [2], the pIC50 is 6.45.

Take `CCCc1cc2c(N3CCn4c(nnc4C(F)(F)F)C3)nc(C(=O)NCc3ccccc3)nc2s1` [Example 4-17, 6-Propyl-4-(3-trifluoromethyl-5,6-dihydro-8H-[1,2,4]triazolo[4,3-a]pyrazin-7-yl)thieno[2,3-d]pyrimidine-2-carboxylic acid benzylamide]: in test [1], the pKi was 5.80. Also, in test [2], the pIC50 is 6.68.

Turning to `CCCc1cc2c(N3CCn4c(nnc4C(F)(F)F)C3)nc(N3CCN(CC4CCCC4)CC3)nc2s1` [Example 1-41, 7-[2-(4-Cyclopentylmethyl-piperazin-1-yl)-6-propyl-thieno[2,3-d]pyrimidin-4-yl]-3-trifluoromethyl-5,6,7,8-tetrahydro-[1,2,4]triazolo[4,3-a]pyrazine], the negative logarithm of the Ki (pKi) in test [1] is 5.80. In addition, in test [2], the pIC50 was 6.27.

In test [1], `CCCc1cc2c(N3CCn4c(nnc4C(F)(F)F)C3)nc(C(=O)N3CCCC(C(=O)OCC)C3)nc2s1` (stereo not drawn) [Example 4-14, 1-[6-Propyl-4-(3-trifluoromethyl-5,6-dihydro-8H-[1,2,4]triazolo[4,3-a]pyrazin-7-yl)thieno[2,3-d]pyrimidine-2-carbonyl]piperidine-3-carboxylic acid ethyl ester] gave a pKi of 6.34. Besides, the pIC50 in test [2] is 5.89.

On to `CCCc1cc2c(N3CCn4c(nnc4C(F)(F)F)C3)nc(N3CCCC(CO)C3)nc2s1` (stereo not drawn) [Example 1-29, {1-[6-Propyl-4-(3-trifluoromethyl-5,6-dihydro-8H-[1,2,4]triazolo[4,3-a]pyrazin-7-yl)-thieno[2,3-d]pyrimidin-2-yl]-piperidin-3-yl}-methanol], for which the pKi in test [1] is 7.22. Besides, the pIC50 in test [2] was 7.30.

For `CCCc1cc2c(N3CCn4c(nnc4C(F)(F)F)C3)nc(N3CCN(CC4CCCCC4)CC3)nc2s1` [Example 1-42, 7-[2-(4-Cyclohexylmethyl-piperazin-1-yl)-6-propyl-thieno[2,3-d]pyrimidin-4-yl]-3-trifluoromethyl-5,6,7,8-tetrahydro-[1,2,4]triazolo[4,3-a]pyrazine], in test [1], the pKi is 5.14. The pIC50 in test [2] is 5.93.

In test [1], `CCCc1cc2c(N3CCn4c(nnc4C(F)(F)F)C3)nc(-c3nnc(CC(=O)O)o3)nc2s1` [Example 4-41, {5-[6-Propyl-4-(3-trifluoromethyl-5,6-dihydro-8H-[1,2,4]triazolo[4,3-a]pyrazin-7-yl)thieno[2,3-d]pyrimidin-2-yl]-[1,3,4]oxadiazol-2-yl}acetic acid] had a pKi of 6.15. Further, the pIC50 in test [2] was 6.39.

In test [1], `CC(C)Cc1cc2c(N3CCn4c(nnc4C(F)(F)F)C3)nc(N3CCNC(=O)C3)nc2s1` [Example 2-17, 4-[6-Isobutyl-4-(3-trifluoromethyl-5,6-dihydro-8H-[1,2,4]triazolo[4,3-a]pyrazin-7-yl)-thieno[2,3-d]pyrimidin-2-yl]-piperazin-2-one] showed a pKi of 6.36. Further, the pIC50 in test [2] was 6.44.

On to `CCCc1cc2c(N3CCn4c(nnc4C(F)(F)F)C3)nc(N3Cc4ccccc4C3)nc2s1` [Example 1-72, 7-[2-(1,3-Dihydro-isoindol-2-yl)-6-propyl-thieno[2,3-d]pyrimidin-4-yl]-3-trifluoromethyl-5,6,7,8-tetrahydro-[1,2,4]triazolo[4,3-a]pyrazine], for which the pKi in test [1] is < 5.40. Also, the pIC50 in test [2] is 6.29.

Regarding `CCCc1cc2c(N3CCn4c(nnc4C(F)(F)F)C3)nc(C(=O)Nc3ccccc3)nc2s1` [Example 4-16, 6-Propyl-4-(3-trifluoromethyl-5,6-dihydro-8H-[1,2,4]triazolo[4,3-a]pyrazin-7-yl)-thieno[2,3-d]pyrimidine-2-carboxylic acid phenylamide], the pKi in test [1] is < 5.40. In addition, the pIC50 in test [2] was 6.19.

`CCCc1cc2c(N3CCn4c(nnc4C(F)(F)F)C3)nc(OCc3cocn3)nc2s1` [Example 3-20, 7-[2-(Oxazol-4-ylmethoxy)-6-propyl-thieno[2,3-d]pyrimidin-4-yl]-3-trifluoromethyl-5,6,7,8-tetrahydro-[1,2,4]triazolo[4,3-a]pyrazine] showed a pKi in test [1] of 6.08. Besides, the pIC50 in test [2] was 7.08.

Take `CCCc1cc2c(N3CCn4c(nnc4C(F)(F)F)C3)nc(-c3nnc(C)o3)nc2s1` [Example 4-32, 7-[2-(5-Methyl-[1,3,4]oxadiazol-2-yl)-6-propyl-thieno[2,3-d]pyrimidin-4-yl]-3-trifluoromethyl-5,6,7,8-tetrahydro-[1,2,4]triazolo[4,3-a]pyrazine]: the pKi in test [1] is 6.82. In addition, in test [2], the pIC50 was 6.64.

In test [1], `CCCc1cc2c(N3CCn4c(nnc4C(F)(F)F)C3)nc(C(=O)NCC(O)CO)nc2s1` (stereo not drawn) [Example 4-10, 6-Propyl-4-(3-trifluoromethyl-5,6-dihydro-8H-[1,2,4]triazolo[4,3-a]pyrazin-7-yl)thieno[2,3-d]pyrimidine-2-carboxylic acid (2,3-dihydroxy-propyl)amide] gave a pKi of 6.70. For the same molecule, in test [2], the pIC50 was 5.81.

For the molecule `CCCc1cc2c(N3CCn4c(nnc4C(F)(F)F)C3)nc(OCC3CCCO3)nc2s1` (stereo not drawn) [Example 3-6, 7-[6-Propyl-2-(tetrahydro-furan-2-ylmethoxy)-thieno[2,3-d]pyrimidin-4-yl]-3-trifluoromethyl-5,6,7,8-tetrahydro-[1,2,4]triazolo[4,3-a]pyrazine], the pKi in test [1] is 6.85. Moreover, the pIC50 in test [2] is 6.16.

Consider `CCCc1cc2c(N3CCn4c(nnc4C(F)(F)F)C3)nc(N3CCC[C@H]3C(=O)OC(C)C)nc2s1` [Example 1-51, (S)-1-[6-Propyl-4-(3-trifluoromethyl-5,6-dihydro-8H-[1,2,4]triazolo[4,3-a]pyrazin-7-yl)-thieno[2,3-d]pyrimidin-2-yl]-pyrrolidine-2-carboxylic acid isopropyl ester], for which the pKi in test [1] is 6.10. Moreover, the pIC50 in test [2] is 6.66.

On to `CCCc1nc2c(N3CCn4c(nnc4C(F)(F)F)C3)nc(N3CCNC(=O)C3)nc2s1` [Example 5-4, 4-[2-Propyl-7-(3-trifluoromethyl-5,6-dihydro-8H-[1,2,4]triazolo[4,3-a]pyrazin-7-yl)-thiazolo[5,4-d]pyrimidin-5-yl]-piperazin-2-one], for which the pKi in test [1] was 7.24. Also, the pIC50 in test [2] was 7.14.

`CCCc1cc2c(N3CCn4c(nnc4C(F)(F)F)C3)nc(C(=O)NCCC#N)nc2s1` [Example 4-11, 6-Propyl-4-(3-trifluoromethyl-5,6-dihydro-8H-[1,2,4]triazolo[4,3-a]pyrazin-7-yl)thieno[2,3-d]pyrimidine-2-carboxylic acid (2-cyanoethyl)amide] gave a pKi in test [1] of 6.22. Moreover, in test [2], the pIC50 was 6.18.

As for `CCCc1cc2c(N3CCn4c(nnc4C(F)(F)F)C3)nc(Oc3ccccc3)nc2s1` [Example 3-28, 7-(2-Phenoxy-6-propyl-thieno[2,3-d]pyrimidin-4-yl)-3-trifluoromethyl-5,6,7,8-tetrahydro-[1,2,4]triazolo[4,3-a]pyrazine], the pKi in test [1] was 5.01. Besides, the pIC50 in test [2] is 6.75.

In the case of `CCCc1cc2c(N3CCn4c(nnc4C(F)(F)F)C3)nc(C(=O)NCCC(=O)OCC)nc2s1` [Example 4-6, 3-{[6-Propyl-4-(3-trifluoromethyl-5,6-dihydro-8H-[1,2,4]triazolo[4,3-a]pyrazin-7-yl)thieno[2,3-d]pyrimidine-2-carbonyl]amino}propionic acid ethyl ester], the pKi in test [1] was 5.92. Also, the pIC50 in test [2] is 5.54.

As to `CCc1cc2c(N3CCn4c(nnc4C(F)(F)C(F)(F)F)C3)nc(OCC(O)CO)nc2s1` (stereo not drawn) [Example 6-3, 3-[6-Ethyl-4-(3-pentafluoroethyl-5,6-dihydro-8H-[1,2,4]triazolo[4,3-a]pyrazin-7-yl)-thieno[2,3-d]pyrimidin-2-yloxy]-propane-1,2-diol], the pKi in test [1] was 6.40. In addition, the pIC50 in test [2] was 6.21.

Consider `CCCc1cc2c(N3CCn4c(nnc4C(F)(F)C(F)(F)F)C3)nc(N3CCNC(=O)C3)nc2s1` [Example 6-4, 4-[4-(3-Pentafluoroethyl-5,6-dihydro-8H-[1,2,4]triazolo[4,3-a]pyrazin-7-yl)-6-propyl-thieno[2,3-d]pyrimidin-2-yl]-piperazin-2-one], for which the pKi in test [1] is 6.51. Further, the pIC50 in test [2] was 6.89.

Regarding `CCCc1cc2c(N3CCn4c(nnc4C(F)(F)F)C3)nc(OCC(O)CO)nc2s1` (stereo not drawn) [Example 3-1, 3-[6-Propyl-4-(3-trifluoromethyl-5,6-dihydro-8H-[1,2,4]triazolo[4,3-a]pyrazin-7-yl)-thieno[2,3-d]pyrimidin-2-yloxy]-propane-1,2-diol], the negative logarithm of the Ki (pKi) in test [1] was 7.51. Also, the pIC50 in test [2] was 6.85.

On to `CCCc1cc2c(N3CCn4c(nnc4C(F)(F)F)C3)nc(N3CCn4c(nnc4C(F)(F)F)C3)nc2s1` [Example 1-74, 7,7′-(6-propylthieno[2,3-d]pyrimidine-2,4-diyl)bis[3-(trifluoromethyl)-5,6,7,8-tetrahydro[1,2,4]triazolo[4,3-a]pyrazine]], for which, in test [1], the pKi is 7.40. Besides, in test [2], the pIC50 is 7.48.
